Patent US20230348447A1, “OXAZOLIDINONE COMPOUNDS, LIPOSOME COMPOSITIONS COMPRISING OXAZOLIDINONE COMPOUNDS AND METHOD OF USE THEREOF” (priority 2020, published 2023)
Converted amounts (≈) assume the structure as drawn. Like-named read-outs stand apart in the source and are kept apart here.

Experiments:
[1] = system: human hepatocyte/liver (HepG2; ATCC #HB8065) cells; experiment: In vitro cytotoxicity (PrestoBlue cell viability), HepG2; assay type: cell-based
[2] = system: M.tb Erdman; experiment: Broth microdilution MIC with Alamar blue endpoint (MABA) / OD600; assay type: cell-based, Mycobacterium tuberculosis
[3] = system: M. Tuberculosis Erdman or H37Rv vs VERO or HepG2 cells; experiment: Selectivity Index (mammalian cell IC50 / bacterial MIC); design: species or system Mycobacterium tuberculosis
[4] = system: African green monkey kidney (Vero; ATCC # CCL81) cells; experiment: In vitro cytotoxicity (PrestoBlue cell viability), Vero; assay type: cell-based
[5] = system: M.tb H37Rv; experiment: Broth microdilution MIC with Alamar blue endpoint (MABA) / OD600; assay type: cell-based, Mycobacterium tuberculosis
[6] = Liposome loading / encapsulation efficiency (General protocol)
[7] = Homo sapiens, HepG2, 72 h; read-out: Cell viability IC50, HepG2
[8] = Mycobacterium tuberculosis, ERDMAN; read-out: Mycobacterium tuberculosis MIC, Erdman
[9] = Chlorocebus sabaeus, Vero, 72 h; read-out: Cell viability IC50, VERO
[10] = Mycobacterium tuberculosis, H37RV; read-out: Mycobacterium tuberculosis MIC, H37Rv
[11] = Mycobacterium tuberculosis, ERDMAN, read-out: Mycobacterium tuberculosis MIC, Erdman
[12] = Mycobacterium tuberculosis, H37RV, read-out: Mycobacterium tuberculosis MIC, H37Rv
[13] = Homo sapiens, HepG2, 72 h, read-out: Cell viability IC50, HepG2
[14] = Chlorocebus sabaeus, Vero, 72 h, read-out: Cell viability IC50, VERO

| Structure (SMILES) | IC50 [1, 7] [µg/mL] | MIC [2, 8] [µg/mL] | Selectivity Index (SI) Erd/HepG2 [3] | Selectivity Index (SI) Erd/VERO [3] | IC50 [4, 9] [µg/mL] | MIC [5, 10] [µg/mL] | further results |
| --- | --- | --- | --- | --- | --- | --- | --- |
| CN(C)C[C@H]1CN(c2ccc(-c3ccc(-c4nnn(C)n4)nc3)c(F)c2)C(=O)O1 [AKG-1] | 116 (≈ 292 µM) | > 8 | <14.5 | <14.1 | 113 (≈ 283 µM) | > 8 |  |
| CCN(CC)C[C@H]1CN(c2ccc(-c3ccc(-c4nnn(C)n4)nc3)c(F)c2)C(=O)O1 [AKG-2] | 24.5 (≈ 57.6 µM) | > 8 | <3.1 | <8.5 | 67.9 (≈ 160 µM) | > 8 |  |
| CN(C)CCCC(=O)OC[C@H]1CN(c2ccc(-c3ccc(-c4nnn(C)n4)nc3)c(F)c2)C(=O)O1 [AKG-5] | 30.8 (≈ 63.7 µM) | 1 (≈ 2.07 µM) | 30.8 |  | 32.5 (≈ 67.2 µM) | 1 (≈ 2.07 µM) | Maximum encapsulated drug payload ([6]; 0.5 M AS, 0.5 mol% PEG): 627 g/mol PhL; loading efficiency at or near the maximum drug load ([6]; 1 N TEA-SOS, DL0 750-1500 g/mol PhL): ≥ 96.0%; maximum drug load ([6]; 1 N TEA-SOS, DL0 750-1500 g/mol PhL, no buffer): 982-1197 g/mol PhL; stability during liposome loading (HPLC) ([6]; Example 12): Degradation of AKG-5 during the liposome loading was detected; Drug loading efficiency ([6]; PEG-DSG 0.5 mol%, 1 N TEA-SOS, DL0 500 g/mol PhL): 101.3; Drug loading efficiency ([6]; PEG-DSG 0.5 mol%, […] AS, DL0 250 g/mol PhL): 98.5; Drug loading efficiency ([6]; PEG-DSG 0.5 mol%, […] AS, DL0 500 g/mol PhL): 97.7; Drug loading efficiency ([6]; PEG-DSG 5 mol%, 1 N TEA-SOS, DL0 500 g/mol PhL): 99.3 |
| CN(C)CCC1CCN(C[C@H]2CN(c3ccc(-c4ccc(-c5nnn(C)n5)nc4)c(F)c3)C(=O)O2)CC1 [AKG-6] | 15.5 (≈ 30.5 µM) | > 8 | <1.9 | 3.4 | 27.4 (≈ 53.9 µM) | > 8 |  |
| CCN(CC)CCOC[C@H]1CN(c2ccc(-c3ccc(-c4nnn(C)n4)nc3)c(F)c2)C(=O)O1 [AKG-7] | 11.2 (≈ 23.9 µM) | > 8 | <1.4 | 13.0 | 104 (≈ 221 µM) | > 8 |  |
| CCN(CC)CCCNC[C@H]1CN(c2ccc(-c3ccc(-c4nnn(C)n4)nc3)c(F)c2)C(=O)O1 [AKG-8] |  |  |  |  |  |  | MIC [2, 11]: > 8 µg/mL; MIC [5, 12]: > 8 µg/mL |
| CCN(CC)CCNC[C@H]1CN(c2ccc(-c3ccc(-c4nnn(C)n4)nc3)c(F)c2)C(=O)O1 [AKG-9] |  |  | <3.5 | <17.4 |  |  | IC50 [1, 13]: 28.1 µg/mL (≈ 60 µM); MIC [2, 11]: > 8 µg/mL; IC50 [4, 14]: 139 µg/mL (≈ 297 µM); MIC [5, 12]: > 8 µg/mL |
| CN(C)CCC1CCN(c2ccc(-c3ccc(N4C[C@H](CO)OC4=O)cc3F)cn2)CC1 [AKG-11] | 42.8 (≈ 96.7 µM) | 4 (≈ 9.04 µM) | 10.7 | 8.0 | 31.9 (≈ 72.1 µM) | 4 (≈ 9.04 µM) |  |
| CN(C)CCNc1ccc(-c2ccc(N3C[C@H](CO)OC3=O)cc2F)cn1 [AKG-12] |  |  | 16.9 | 22.3 |  |  | IC50 [1, 13]: 67.6 µg/mL (≈ 181 µM); MIC [2, 11]: 4 µg/mL (≈ 10.7 µM); IC50 [4, 14]: 89.1 µg/mL (≈ 238 µM); MIC [5, 12]: 4 µg/mL (≈ 10.7 µM) |
| CCN(CC)CCNc1ccc(-c2ccc(N3C[C@H](CO)OC3=O)cc2F)cn1 [AKG-13] | 31.8 (≈ 79 µM) | > 8 | <4.0 | <11.7 | 93.9 (≈ 233 µM) | > 8 |  |
| CN(C)CCCNc1ccc(-c2ccc(N3C[C@H](CO)OC3=O)cc2F)cn1 [AKG-14] |  | 8 (≈ 20.6 µM) |  |  |  | 8 (≈ 20.6 µM) |  |
| CCN(CC)CCCNc1ccc(-c2ccc(N3C[C@H](CO)OC3=O)cc2F)cn1 [AKG-15] | 35.6 (≈ 85.5 µM) | > 8 | <4.5 | <19.5 | 156 (≈ 375 µM) | > 8 |  |
| Cl.Cn1nnc(-c2ccc(-c3ccc(N4C[C@H](CNC(=O)CCN)OC4=O)cc3F)cn2)n1 [AKG-17] |  |  |  |  |  |  | Cell viability IC50, HepG2 ([1]; 72 h): 37.3 µg/mL; Mycobacterium tuberculosis MIC, Erdman [2]: 2 µg/mL; Cell viability IC50, VERO ([4]; 72 h): >250 µg/mL; Mycobacterium tuberculosis MIC, H37Rv [5]: 2 µg/mL |
| Cl.Cn1nnc(-c2ccc(-c3ccc(N4C[C@H](CNC(=O)CCCN)OC4=O)cc3F)cn2)n1 [AKG-18] |  |  |  |  |  |  | Cell viability IC50, HepG2 ([1]; 72 h): 9.5 µg/mL; Mycobacterium tuberculosis MIC, Erdman [2]: 2 µg/mL; Cell viability IC50, VERO ([4]; 72 h): >250 µg/mL; Mycobacterium tuberculosis MIC, H37Rv [5]: 2 µg/mL |
| Cl.Cn1nnc(-c2ccc(-c3ccc(N4C[C@H](CNC(=O)CCN)OC4=O)cc3F)cn2)n1 [AKG-19] | 42.2 | > 8 | 5.3 | >31.3 | > 250 | > 8 |  |
| CCN(CC)CCC(=O)OC[C@H]1CN(c2ccc(-c3ccc(-c4nnn(C)n4)nc3)c(F)c2)C(=O)O1 [AKG-20] | 15.1 (≈ 30.3 µM) | 0.5 (≈ 1 µM) | 30.2 | >500 | > 250 | 0.5 (≈ 1 µM) |  |
| CN(C)CCn1nnnc1-c1ccc(-c2ccc(N3C[C@H](CO)OC3=O)cc2F)cn1 [AKG-21] | 156 (≈ 366 µM) | > 8 | <19.5 |  | > 250 | > 8 |  |
| Cl.NCCn1nnc(-c2ccc(-c3ccc(N4C[C@H](CO)OC4=O)cc3F)cn2)n1 [AKG-23] | 7.3 | 0.25 | 29.2 | >1000 | > 250 | 0.25 |  |
| CCN(CC)CCn1nnc(-c2ccc(-c3ccc(N4C[C@H](CO)OC4=O)cc3F)cn2)n1 [AKG-24] | 11.4 (≈ 25 µM) | 1 (≈ 2.2 µM) | 11.4 | 31.3 | 31.3 (≈ 68.7 µM) | 1 (≈ 2.2 µM) |  |
| CN(C)CCCn1nnc(-c2ccc(-c3ccc(N4C[C@H](CO)OC4=O)cc3F)cn2)n1 [AKG-25] | 9.4 (≈ 21.3 µM) | 1 (≈ 2.27 µM) | 9.4 | 182.0 | 182 (≈ 412 µM) | 1 (≈ 2.27 µM) |  |
| CCN(CC)CCCn1nnc(-c2ccc(-c3ccc(N4C[C@H](CO)OC4=O)cc3F)cn2)n1 [AKG-26] | 9 (≈ 19.2 µM) | 2 (≈ 4.26 µM) | 4.5 | 64.3 | 128 (≈ 274 µM) | 2 (≈ 4.26 µM) |  |
| Cl.NCCCn1nnc(-c2ccc(-c3ccc(N4C[C@H](CO)OC4=O)cc3F)cn2)n1 [AKG-27] | 9 | 0.5 | 18.0 | 11.2 | 5.6 | 0.5 |  |
| CCN(CC)CCCn1nnc(-c2ccc(-c3ccc(N4C[C@H](CN)OC4=O)cc3F)cn2)n1 [AKG-31] |  |  | 26.4 | 223.0 |  |  |  |
| COc1nc2ccc(Br)cc2cc1[C@@H](c1ccccc1)[C@@](O)(CCN(C)C)c1cccc2ccccc12 [Bedaquiline, reference compound] |  |  |  |  |  |  | MIC ([2]; Mycobacterium tuberculosis; M. tuberculosis Erdman / H37Rv, strains not separated; read-out: MIC): 0.125 µg/mL (≈ 0.225 µM) |
